Laboratory results taken from PMC11547505 (Molecules, 2024).
Like-named read-outs stand apart in the source and are kept apart here.

Assays:
SARS-CoV-2 [1] = assay: Anti-SARS-CoV-2 virus yield reduction assay (qRT-PCR) on Vero cells; details: for Anti-SARS-CoV-2 Activity, % Inhibition at 10 µM: 0.1 MOI, virus yield reduction qRT-PCR; for EC50: read-out: Anti-SARS-CoV-2 Activity, EC50, antiviral dose–response, 2 days post-treatment
in vitro [2] = assay: in vitro
[3] = target: SARS-CoV-2 2′-O-MTase (Nsp10–16) (Severe acute respiratory syndrome coronavirus 2, UniProt P0DTD1); assay: MTaseGlo coupled assay of Nsp10–16 RNA methyltransferase activity; format: biochemical; details: 25 nM Nsp10–16, 300 nM Cap-0 RNA, 5 µM SAM, 15 min; read-out: 2′-O-MTase Inhibition IC50
in vitro [4] = details: African green monkey
SARS-CoV-2 [5] = test system: SARS-CoV-2; parameters: method as in PMID 33290767, PMID 35456990, PMID 33671463; details: Vero cells; read-out: IC50 against SARS-CoV-2; cited from earlier work
SARS-CoV-2 2′-O-MTase = target: SARS-CoV-2 2′-O-MTase; parameters: method as in PMID 33874769; details: control nucleoside-based methyltransferase inhibitor; read-out: 2′-O-MTase Inhibition IC50; cited from earlier work
[6] = peripheral blood mononuclear (PBM) cells

Question: For Cc1ccc2c(c1)-c1cc(C(=O)c3ccc(O)cc3O)c(O)cc1OC2(C)C [CPM-2, (2,4-dihydroxyphenyl)(3-hydroxy-6,6,9-trimethyl-6H-benzo[c]chromen-2-yl)methanone], which “Anti-SARS-CoV-2 Activity, % Inhibition at 10 µM” value (SARS-CoV-2 [1]) is on record?
Answer: The value was 98.1%.

Question: And the EC50 (SARS-CoV-2 [1])?
Answer: Its EC50 is 8.6 µM.

Question: And the CC50 (in vitro [2])?
Answer: The CC50 was 41.2 µM.

Question: What about the IC50 [3] of the same compound?
Answer: Its IC50 is 6.7 ± 0.5 µM.

Question: And the CC50 (in vitro [4])?
Answer: The CC50 was 55.4 µM.

Question: With C=C(C)[C@@H]1CCC(C)=C[C@H]1c1c(O)cc(CCCCC)cc1O [CBD, cannabidiol] as the compound, how does the IC50 (SARS-CoV-2 [5]) read?
Answer: The IC50 was 7.9 µM.

Question: What does the source list for CCC(CC)COC(=O)[C@H](C)N[P@](=O)(OC[C@H]1O[C@@](C#N)(c2ccc3c(N)ncnn23)[C@H](O)[C@@H]1O)Oc1ccccc1 [Remdesivir, reference compound]?
Answer: Anti-SARS-CoV-2 Activity, % Inhibition at 10 µM (SARS-CoV-2 [1]): 99.9%; EC50 (SARS-CoV-2 [1]): 2.3 µM; CC50 (in vitro [2]; [6]): 2 µM; CC50 (in vitro [4]; Vero cells (kidney)): > 100 µM

Question: What does the source list for Cc1ccc2c(c1)-c1c(ccc(C(=O)c3ccc(O)cc3O)c1O)OC2(C)C [CPM-1, (2,4-dihydroxyphenyl)(1-hydroxy-6,6,9-trimethyl-6H-benzo[c]chromen-2-yl)methanone]?
Answer: Anti-SARS-CoV-2 Activity, % Inhibition at 10 µM (SARS-CoV-2 [1]): 98.9%; EC50 (SARS-CoV-2 [1]): 7.65 µM; CC50 (in vitro [2]): > 100 µM; IC50 [3]: 1.5 ± 0.2 µM; CC50 (in vitro [4]): > 100 µM

Question: Which IC50 (SARS-CoV-2 2′-O-MTase) does the source give for Nc1ncnc2c1ncn2[C@@H]1O[C@H](C[C@@H](N)CC[C@H](N)C(=O)O)[C@@H](O)[C@H]1O [Sinefungin] here?
Answer: Its IC50 is 3.4 ± 0.4 µM.

Question: Which results are given for CC1=CC[C@@H]2[C@@H](C1)c1cc(C(=O)c3ccc(O)cc3O)c(O)cc1OC2(C)C [TPM-2, (2,4-dihydroxyphenyl)((6aR,10aR)-3-hydroxy-6,6,9-trimethyl-6a,7,10,10a-tetrahydro-6H-benzo[c]chromen-2-yl)methanone]?
Answer: Anti-SARS-CoV-2 Activity, % Inhibition at 10 µM (SARS-CoV-2 [1]): 98.9%; EC50 (SARS-CoV-2 [1]): 7.8 µM; CC50 (in vitro [2]; [6]): 34.9 µM; IC50 [3]: 6.4 ± 1.5 µM; CC50 (in vitro [4]; Vero cells (kidney)): 45.2 µM

Question: With CC1=CC[C@@H]2[C@@H](C1)c1c(ccc(C(=O)c3ccc(O)cc3O)c1O)OC2(C)C [TPM-1, (2,4-dihydroxyphenyl)((6aR,10aR)-1-hydroxy-6,6,9-trimethyl-6a,7,10,10a-tetrahydro-6H-benzo[c]chromen-2-yl)methanone] as the compound, how does the “Anti-SARS-CoV-2 Activity, % Inhibition at 10 µM” value (SARS-CoV-2 [1]) read?
Answer: Its value is 99.3%.

Question: And the EC50 (SARS-CoV-2 [1])?
Answer: Its EC50 is 4.3 µM.

Question: And the CC50 (in vitro [2]; [6])?
Answer: Its CC50 is 59.2 µM.

Question: What about the IC50 [3] of the same compound?
Answer: The IC50 was 2.8 ± 0.5 µM.

Question: What about the CC50 (in vitro [4]; Vero cells (kidney)) of the same compound?
Answer: Its CC50 is 13.2 µM.

Question: Which IC50 (SARS-CoV-2 [5]) does the source give for CCCCCc1cc(O)c2c(c1)OC(C)(C)[C@@H]1CCC(C)=C[C@@H]21 [Δ^9-THC, delta-9-tetrahydrocannabinol] here?
Answer: The IC50 was 10.3 µM.
